In PubChem BioAssay (NCI):
Values joined by “and” are separate entries in the source; they are usually repeats but may differ in a detail not shown here. Equal entries are not always repeated.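 In this assay, cells in 96-well plates receive the compound at five concentrations for 48 hours. Endpoints are linearly interpolated between the surrounding concentrations. GI50 marks 50% less growth. At the TGI there is no net growth.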

Assays:
Experiment in all cases: NCI anticancer screen, dose series, 48 h
A498 renal = test system: A498 renal
CAKI-1 renal = test system: CAKI-1 renal
HL-60(TB) leukemia = test system: HL-60(TB) leukemia
HT29 colon = test system: HT29 colon
IGROV1 ovarian = test system: IGROV1 ovarian
MALME-3M melanoma = test system: MALME-3M melanoma
NCI-H522 lung = test system: NCI-H522 lung
OVCAR-5 ovarian = test system: OVCAR-5 ovarian
SF-539 CNS = test system: SF-539 CNS
SNB-19 CNS = test system: SNB-19 CNS

Row | SMILES | GI50 (A498 renal) | TGI (A498 renal) | GI50 (CAKI-1 renal) | TGI (CAKI-1 renal) | GI50 (HL-60(TB) leukemia) | TGI (HL-60(TB) leukemia) | GI50 (HT29 colon) | TGI (HT29 colon) | GI50 (IGROV1 ovarian) | TGI (IGROV1 ovarian) | GI50 (MALME-3M melanoma) | TGI (MALME-3M melanoma) | GI50 (NCI-H522 lung) | TGI (NCI-H522 lung) | GI50 (OVCAR-5 ovarian) | TGI (OVCAR-5 ovarian) | GI50 (SF-539 CNS) | TGI (SF-539 CNS) | GI50 (SNB-19 CNS) | TGI (SNB-19 CNS)
1 | Clc1ccc(COC(Cn2ccnc2)c2ccc(Cl)cc2Cl)cc1 (stereo not given) | 1.23 µM | 8.22 µM and 27.8 µM and 24.2 µM | 2.05 µM | 9.58 µM and 24.9 µM and 23.6 µM | 2.42 µM | 5.2 µM and 22.7 µM and 16.6 µM | 1.95 µM | 5.22 µM and 22.4 µM and 21.5 µM | 2.62 µM | 12.3 µM and 25.8 µM and 26.1 µM | 2.22 µM | 6.36 µM and 28.2 µM and 31.1 µM | 0.282 µM | 2.43 µM and 18.5 µM and 22.8 µM | 4.24 µM | 16.8 µM and 24.4 µM and 28.1 µM | 4.6 µM | 16.4 µM and 38.3 µM and 29.4 µM | 3.35 µM | 17.9 µM and 32.3 µM and 30.5 µM
2 | COC(=O)c1nc(NN)[nH]c(=O)c1CCCCCc1c(C(=O)OC)[nH]c(NN)cc1=O | – | > 100 µM | – | > 100 µM | – | > 100 µM | – | > 100 µM | – | > 100 µM | – | > 100 µM | – | > 100 µM | – | > 100 µM | – | > 100 µM | – | > 100 µM
3 | CCc1ccccc1NC(=O)C(=O)C(C(=O)c1ccc(OC)cc1)c1ccc(OC)cc1 (stereo not given) | – | > 100 µM | – | > 100 µM | – | > 100 µM | – | > 100 µM | – | > 100 µM | – | > 100 µM | – | > 100 µM | – | > 100 µM | – | > 100 µM | – | > 100 µM
4 | O=C(O)c1cc[c]([Hg][S]c2ncnc3nc[nH]c23)cc1 | > 35.3 µM | > 87.1 µM | 4.96 µM | 21.1 µM | 0.4 µM | 13.4 µM | 7.27 µM | 21.7 µM | 9.25 µM | 23.8 µM | 3.35 µM | 17.9 µM | 1.08 µM | 8.24 µM | 14.1 µM | 29 µM | 7.39 µM | 25.6 µM | > 76.7 µM | > 100 µM
5 | Cc1cccc(NC(=O)c2sc3nc4c(cc3c2N)CCCC4)c1C | 0.232 µM | 0.981 µM | 0.491 µM | > 100 µM | 0.266 µM | 0.941 µM | 0.341 µM | > 100 µM | 0.547 µM | > 100 µM | 0.614 µM | > 100 µM | 0.269 µM | > 100 µM | 1.79 µM | > 100 µM | 0.272 µM | 1.2 µM | 0.508 µM | > 100 µM
6 | N#CC(C#N)SCc1ccccc1 | – | > 100 µM | – | > 100 µM | – | 14.7 µM | – | 62.8 µM | – | > 100 µM | – | > 100 µM | – | 57.7 µM | – | > 40.3 µM | – | 13.1 µM | – | > 100 µM
7 | COc1cc2nncc(Sc3cnnc4ccccc34)c2cc1OC | – | 82 µM | – | > 100 µM | – | 70.5 µM | – | 59.1 µM | – | > 100 µM | – | 32.4 µM | – | 29.8 µM | – | 64.6 µM | – | 51.7 µM | – | 42.3 µM
8 | CC1(C)C(=O)C(O)=CC2C1=CCC1C2(C)C(=O)CC2(C)C(C(C)(O)C(=O)CC(O)C(C)(C)O)C(O)CC12C (stereo not given) | – | 4.37 µM | – | 5.1 µM | – | 11.6 µM | – | > 64.5 µM | – | 7.1 µM | – | 12.1 µM | – | 8.61 µM | – | > 100 µM | – | 5.98 µM | – | 12.7 µM
9 | CCOC(=O)c1c(NC(=O)c2ccc(C(C)C)cc2)sc2c(CN(C)C)c(O)ccc12 | 1.86 µM | 9.02 µM | 1.73 µM | 3.44 µM | 1.77 µM | 4.2 µM | 3.26 µM | 14.1 µM | 2.89 µM | 8.69 µM | 1.72 µM | 3.22 µM | 2.01 µM | 4.53 µM | 2.92 µM | 9.49 µM | 1.74 µM | 3.23 µM | 2.36 µM | 5.3 µM
10 | CCC1(Br)C(=O)NC(=O)N(C2CC(O)C(CO)O2)C1N=[N+]=[N-] (stereo not given) | – | > 100 µM | – | > 100 µM | – | > 100 µM | – | > 100 µM | – | > 100 µM | – | > 100 µM | – | > 100 µM | – | > 100 µM | – | > 100 µM | – | > 100 µM
11 | CSc1ccc(C2=Nn3c(nnc3-c3ccc(F)c(Cl)c3)SC2)cc1 | 10 µM | 30.2 µM | 22.5 µM | > 100 µM | 5.39 µM | > 100 µM | 5.73 µM | 29.7 µM | 13.1 µM | 44.4 µM | 2.01 µM | 10.9 µM | 4.38 µM | 21.4 µM | 39.5 µM | > 100 µM | 10.1 µM | 26.7 µM | 10.7 µM | 32.7 µM
12 | CC1(C)N=C(N)N=C(N)N1c1ccc(CCc2ccccc2)c(Cl)c1 | 0.788 µM | 15 µM | 3.99 µM | > 48.8 µM | 0.0473 µM | 2.72 µM | 0.0531 µM | 12.7 µM | 0.0668 µM | 15.7 µM | 0.728 µM | 19 µM | 0.236 µM | 12.7 µM | 0.19 µM | 19.7 µM | 0.131 µM | 12.4 µM | 0.172 µM | 15.4 µM
13 | CC1(C)CCC(C)(C)c2cc(C(=O)Nc3ccc(C(=O)O)cc3)ccc21 | – | > 100 µM | – | 37.2 µM | – | > 53.1 µM | – | > 68.2 µM | – | 63.7 µM | – | > 100 µM | – | 70.6 µM | – | > 100 µM | – | 30.3 µM | – | > 66.4 µM
